In patent publication US20180334453A1, “ISOINDOLINE DERIVATIVES” (VIIV HEALTHCARE UK LIMITED, priority 2015, published 2018) one finds IC50 data, which are given here for four compounds.

The subject of the assay is HIV. Briefly: MT4 assay (anti-HIV activity). It counts as cell-based. Particulars: HTLV-1 transformed cell line MT-4; luciferase activity measured 96 hours later (cell titer glo); 10 point dose response. As to the method:
Antiviral HIV activity and cytotoxicity values for compounds of the invention from Table 1 were measured in parallel in the HTLV-1 transformed cell line MT-4 based on the method previously described (Hazen et al., 2007, In vitro antiviral activity of the novel, tyrosyl-based human immunodeficiency virus (HIV) type 1 protease inhibitor brecanavir (GW640385) in combination with other antiretrovirals and against a panel of protease inhibitor-resistant HIV (Hazen et al., “In vitro antiviral activity of the novel, tyrosyl-based human immunodeficiency virus (HIV) type 1 protease inhibitor brecanavir (GW640385) in combination with other antiretrovirals and against a panel of protease inhibitor-resistant HIV”, Antimicrob. Agents Chemother. 2007, 51: 3147-3154; and Pauwels et al., “Sensitive and rapid assay on MT-4 cells for the detection of antiviral compounds against the AIDS virus”, J. of Virological Methods 1987, 16: 171-185).
Luciferase activity was measured 96 hours later by adding a cell titer glo (Promega, Madison, Wis.). Percent inhibition of cell protection data was plotted relative to no compound control. Under the same condition, cytotoxicity of the compounds was determined using cell titer Glo™ (Promega, Madison, Wis.). IC50 s were determined from a 10 point dose response curve using 3-4-fold serial dilution for each compound, which spans a concentration range >1000 fold.
These values are plotted against the molar compound concentrations using the standard four parameter logistic equation:
y=((Vmax*x̂n)/(K̂n+x̂n))+Y2
Y2=minimum y n=slope factor
Vmax=maximum y x=compound concentration [M]
On the technique in general: Cellular ATP, detected with luciferase, serves as a proxy for viable cell number.
`CCO[C@H](C(=O)O)c1c(C)c2c(c(C)c1-c1cc(F)c3c(c1C)CCCO3)CN(C(=O)c1cccc(F)c1)C2` (atropisomer, axis not shown; (M)) [Example 1, (2S)(M)-2-ethoxy-2-((R)-6-(8-fluoro-5-methylchroman-6-yl)-2-(3-fluorobenzoyl)-4,7-dimethylisoindolin-5-yl)acetic Acid]: the IC50 was found to be 0.145 µM.

Consider `Cc1c(-c2c([C@H](OC(C)(C)C)C(=O)O)c(C(F)(F)F)c3c(c2C(F)(F)F)CN(C(=O)c2cccc(F)c2)C3)cc(F)c2c1CCCO2` (atropisomer, axis not shown; (M)) [Example 4, (2S)(M)-2-(tert-butoxy)-2-(6-(8-fluoro-5-methylchroman-6-yl)-2-(3-fluorobenzoyl)-4,7-bisarifluoromethasoindolin-5-yl)acetic Acid], for which the IC50 came out at 0.004 µM.

`Cc1ccc(-c2c([C@H](OC(C)(C)C)C(=O)O)c(C(F)(F)F)c3c(c2C(F)(F)F)CN(C(=O)OCc2ccccc2)C3)cc1` [Example 2, (S)-2-(2-((benzyloxy)carbonyI)-6-(p-tolyl)-4,7-bis(trifluoromethyl)isoindolin-5-yl)-2-(tert-butoxy)acetic Acid]: the IC50 was found to be 4.4 µM.

Turning to `Cc1ccc(-c2c([C@H](OC(C)(C)C)C(=O)O)c(C(F)(F)F)c3c(c2C(F)(F)F)CN(C(=O)c2cccc(F)c2)C3)cc1` [Example 3], the IC50 worked out at 0.005 µM.

The IC50 is the concentration needed to halve the response being measured.
